In patent US20150118267A1, “METHOD OF USING THEAFLAVIN” (priority 2013, published 2015):

What was measured:
Type in all cases: in vivo, mice
[1] = Weights of immune-related organs (spleen, thymus) after 30-day feeding; conditions: for Spleen Weight change / Thymus Weight change: mice, n=10, 30 days
Experimental: (§1) Female mice (Kuengming, China) weighing 18-22 g were used. The animals were housed in individual stainless steel cages in an air-conditioned room under a 12:12 hour light:dark cycle. A commercial pellet diet and water were provided throughout the experiment. All procedures were conducted in accordance with the P.R. China legislation under No. 8910M047 on the use and care of laboratory animals.
(§2) For each study, forty mice were divided into 4 groups with 10 mice per group (n=10). These four groups were control, theaflavin (low), theaflavin (mid), and theaflavin (high). The latter three were theaflavin-treated groups in which theaflavin (capsule, Xiayie™, prepared according to the method described in U.S. Pat. […] Water was fed for the control group. For the organ weight study, animals were sacrificed after the 30-day study, followed by collecting spleens and thymus for weight measurement. For the other studies, animals were harvested for further analyses as described below. Statistical differences between groups were calculated using SPSS 11.0 with student t test plus Dunnett method.

[2] = system: Sheep red blood cell (SRBC); test: Mouse plasma hemolysin assay; conditions: for Antibody integrand: plasma on day 5 after SRBC injection, n=10
Experimental: For each study, forty mice were divided into 4 groups with 10 mice per group (n=10). These four groups were control, theaflavin (low), theaflavin (mid), and theaflavin (high). The latter three were theaflavin-treated groups in which theaflavin (capsule, Xiayie™, prepared according to the method described in U.S. Pat. No. 8,282,970) was fed to mice at a dose of 83 mg, 250 mg, and 500 mg per kg body weight per day for 30 days for the low, mid, and high group, respectively. Water was fed for the control group. For the organ weight study, animals were sacrificed after the 30-day study, followed by collecting spleens and thymus for weight measurement. For the other studies, animals were harvested for further analyses as described below. Statistical differences between groups were calculated using SPSS 11.0 with student t test plus Dunnett method.
Each mouse was given a single injection of 0.2 ml of 2% SRBC from the above-described preparation. On day 5 after the SRBC injection, the plasma was collected by centrifuging the mouse eye blood at 2000 r/min for 10 min, then was stored into a sterile tube. With a micro hemagglutinin-assay plate, the plasma was diluted to a series of concentrations, then […] of 0.5% SRBC suspension was added. The contents were is mixed by vortexing and incubated for 3 h in a 37° C., 5% CO2 incubator, after which the hemagglutination was observed under microscope. The data were presented as antibody integrand.

[3] = system: Delayed-type hypersensitivity (DTH) induced by sheep red blood cell (SRBC); test: Mouse footpad swelling assay (DTH); conditions: for Footpad swelling: 24 hours after second SRBC injection, n=10
Experimental: For each study, forty mice were divided into 4 groups with 10 mice per group (n=10). These four groups were control, theaflavin (low), theaflavin (mid), and theaflavin (high). The latter three were theaflavin-treated groups in which theaflavin (capsule, Xiayie™, prepared according to the method described in U.S. Pat. […] […] […] […] Statistical differences between groups were calculated using SPSS 11.0 with student t test plus Dunnett method.
Delayed-type hypersensitivity (DTH) is an immune reaction induced by antigen. In the mice footpads at which DTH was elicited, transient swellings which usually peaked at 24-48 hours after the antigen challenge was observed. This assay of measuring footpad swelling of mice caused by a DTH reaction was used to test effects of theaflavin is on immune responses.
The Sheep red blood cell (SRBC) was taken from sheep and washed triple with physiological saline, centrifugated at 1500 g for 10 min, and adjusted to a final concentration of 2%. Each mouse was given a single injection of 0.2 ml of prepared 2% SRBC. On day 4 after the SRBC injection, each mouse was given an […] injection (the second injection) of 0.02 ml of prepared 20% SRBC. Mouse footpad thicknesses were measured before and 24 hours after the second injection. Mouse footpad swelling values were calculated from the difference between these two measurements.

[4] = Mouse body weight after 30-day theaflavin feeding; conditions: for BW change: mice, n=10, 30 days
Experimental: as §1, §2

[5] = theaflavin treatment for 30 days, compared to control

**Q.** For O=c1c(O)cc([C@H]2Oc3cc(O)cc(O)c3C[C@H]2O)cc2c([C@H]3Oc4cc(O)cc(O)c4C[C@H]3O)cc(O)c(O)c12 [Theaflavin, theaflavin], which “Spleen Weight change” value ([1]; 167 mg/kg.BW (Low)) is on record?
**A.** Its value is 0.47 ± 0.13%.

**Q.** And the “Thymus Weight change” value ([1]; 167 mg/kg.BW (Low))?
**A.** Its value is 0.42 ± 0.07%.

**Q.** And the “Spleen Weight change” value ([1]; 333 mg/kg.BW (Mid))?
**A.** The value was 0.46 ± 0.10%.

**Q.** What about the “Thymus Weight change” value ([1]; 333 mg/kg.BW (Mid)) of the same compound?
**A.** Its value is 0.43 ± 0.12%.

**Q.** And the “Spleen Weight change” value ([1]; 500 mg/kg.BW (High))?
**A.** Its value is 0.45 ± 0.07%.

**Q.** And the “Thymus Weight change” value ([1]; 500 mg/kg.BW (High))?
**A.** Its value is 0.42 ± 0.11%.

**Q.** What about the “effect on weights of immune system related organs, i.e., spleen and thymus” value [1, 5] of the same compound?
**A.** The value was “no effect”.

**Q.** What about the Antibody integrand ([2]; 167 mg/kg.BW (Low)) of the same compound?
**A.** Its Antibody integrand is 143.80 ± 35.23.

**Q.** What about the Antibody integrand ([2]; 333 mg/kg.BW (Mid)) of the same compound?
**A.** The Antibody integrand was 123.20 ± 20.37.

**Q.** And the Antibody integrand ([2]; 500 mg/kg.BW (High))?
**A.** Its Antibody integrand is 146.40 ± 26.46.

**Q.** And the “mouse plasma hemolysin assay result compared to control” value ([2]; theaflavin low and high groups)?
**A.** Its value is “statistically significant results”.

**Q.** And the Footpad swelling ([3]; 167 mg/kg.BW (Low))?
**A.** The Footpad swelling was 1.46 ± 0.39 mm.

**Q.** And the Footpad swelling ([3]; 333 mg/kg.BW (Mid))?
**A.** Its Footpad swelling is 1.24 ± 0.24 mm.

**Q.** And the Footpad swelling ([3]; 500 mg/kg.BW (High))?
**A.** Its Footpad swelling is 1.53 ± 0.49 mm.

**Q.** What about the “mouse footpad swelling compared to control” value ([3]; theaflavin low and high groups) of the same compound?
**A.** The value was “statistically significant mouse footpad swelling”.

**Q.** And the BW change ([4]; study I, 167 mg/kg.BW (Low))?
**A.** The BW change was 12.70 ± 0.82 g.

**Q.** And the BW change ([4]; study I, 333 mg/kg.BW (Mid))?
**A.** Its BW change is 12.80 ± 0.79 g.

**Q.** What about the BW change ([4]; study I, 500 mg/kg.BW (High)) of the same compound?
**A.** Its BW change is 12.50 ± 0.71 g.

**Q.** What about the BW change ([4]; study II, 167 mg/kg.BW (Low)) of the same compound?
**A.** Its BW change is 12.00 ± 0.67 g.

**Q.** What about the BW change ([4]; study II, 333 mg/kg.BW (Mid)) of the same compound?
**A.** The BW change was 11.80 ± 0.63 g.

**Q.** What about the BW change ([4]; study II, 500 mg/kg.BW (High)) of the same compound?
**A.** The BW change was 12.70 ± 0.92 g.

**Q.** What about the BW change ([4]; study III, 167 mg/kg.BW (Low)) of the same compound?
**A.** The BW change was 11.90 ± 0.88 g.

**Q.** What about the BW change ([4]; study III, 333 mg/kg.BW (Mid)) of the same compound?
**A.** Its BW change is 12.80 ± 0.63 g.

**Q.** And the BW change ([4]; study III, 500 mg/kg.BW (High))?
**A.** The BW change was 11.90 ± 0.57 g.

**Q.** What about the BW change ([4]; study IV, 167 mg/kg.BW (Low)) of the same compound?
**A.** Its BW change is 13.00 ± 0.94 g.

**Q.** And the BW change ([4]; study IV, 333 mg/kg.BW (Mid))?
**A.** The BW change was 11.90 ± 0.77 g.

**Q.** What about the BW change ([4]; study IV, 500 mg/kg.BW (High)) of the same compound?
**A.** The BW change was 12.00 ± 0.47 g.

**Q.** And the “effect on mice body weights” value [4, 5]?
**A.** Its value is “no effect”.
